In patent publication US8034787B2, “Enzyme-cleavable prodrug compounds” (Medarex, Inc., priority 1998, dated 2011):
Square brackets hold non-standard residues; d marks the D form. Peptide text beside a SMILES is read from it. * marks the point of attachment. Mcc = 7-methoxycoumarin-3-carboxyl, COc1ccc2cc(C(=O)*)c(=O)oc2c1; Sta = CC(C)C[C@H](N)[C@@H](O)CC(=O)O; Isovaleryl = CC(C)CC(=O)*

Legend:
[1] = target: T1, MCF-7/6 cell conditioned media trouase (Homo sapiens, UniProt P52888); test: Thiol activation of MCF-7/6 conditioned medium; type: biochemical; conditions: 1 mM DTT, 30 minutes pre-incubation
T1 construct: MCF-7/6 conditioned medium was pre-incubated for 30 minutes at room temperature with dithiothreitol (DTT); endogenous in cells; host or cells: MCF-7/6 conditioned medium
T1 sequence (P52888 whole entry): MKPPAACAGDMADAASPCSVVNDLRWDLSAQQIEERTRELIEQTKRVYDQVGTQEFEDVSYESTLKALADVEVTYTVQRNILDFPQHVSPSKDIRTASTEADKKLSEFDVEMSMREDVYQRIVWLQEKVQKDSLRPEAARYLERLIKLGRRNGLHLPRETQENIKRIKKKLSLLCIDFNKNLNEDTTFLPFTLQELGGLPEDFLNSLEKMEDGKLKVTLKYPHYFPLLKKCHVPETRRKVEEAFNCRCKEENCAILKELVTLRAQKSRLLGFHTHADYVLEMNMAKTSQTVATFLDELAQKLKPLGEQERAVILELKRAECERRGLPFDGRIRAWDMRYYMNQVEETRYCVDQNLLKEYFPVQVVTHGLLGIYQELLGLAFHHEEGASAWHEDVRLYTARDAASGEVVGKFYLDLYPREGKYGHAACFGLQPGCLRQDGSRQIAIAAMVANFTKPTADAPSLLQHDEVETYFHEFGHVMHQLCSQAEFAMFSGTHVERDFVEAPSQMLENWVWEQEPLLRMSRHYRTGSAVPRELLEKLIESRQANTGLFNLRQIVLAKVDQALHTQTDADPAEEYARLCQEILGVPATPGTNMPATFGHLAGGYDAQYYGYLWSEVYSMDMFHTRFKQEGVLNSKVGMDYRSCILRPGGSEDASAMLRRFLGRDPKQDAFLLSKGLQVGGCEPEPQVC

[2] = target: T2, MCF-7/6 cell homogenate trouase (Homo sapiens, UniProt P52888); test: Inhibition of MCF-7/6 cell homogenate trouase activity; type: biochemical
T2 construct: the cells (approximately 300 μL wet) were homogenized by grinding in 1.7 mL 10 mM pH 7.2 HEPES buffer; endogenous in cells; host or cells: MCF-7/6 (breast carcinoma)
T2 sequence (P52888 whole entry): as above

[3] = Acute toxicity of N-capped prodrugs, intravenous bolus in mice; type: in vivo; conditions: intravenous bolus of 250 mg/kg (Dox-HCl eq.), three to five mice per group
HL-60 cells = test: 3H-thymidine incorporation proliferation assay; type: cell-based; conditions: 24 hours
Protocol: Promyelocytic leukemia cells, HL-60, were cultured in RPMI media containing 10% heat inactivated fetal calf serum (FCS). On the day of the study, the cells were collected, washed and resuspended at a concentration of 0.5×10^6 cells/ml in RPMI containing 10% FCS. 100 μl/well of cell suspension was added to 96 well plates. […] Finally, 10 μl of a 100 μCi/ml ^3H-thymidine was added per well and the plates were incubated for 24 hours. The plates were harvested using a 96 well Harvester (Packard Instruments) and counted on a Packard Top Count counter. Four parameter logistic curves were fitted to the ^3H-thymidine incorporation as a function of drug molarity using Prism software to determine IC50 values.

MCF 7/6 cell homogenate = test: Extent of cleavage by cell homogenate (Example 14); type: biochemical, human; conditions: 12.5 μg/mL, 2 hr, 37° C.
[4] = target: T3, partially purified trouase preparation (Homo sapiens, UniProt P52888); test: Extent of cleavage by partially purified trouase preparation (Example 14); type: biochemical; conditions: 12.5 μg/mL, 2 hr, 37° C.
T3 construct: The fractions containing the highest activity levels were pooled (fractions #43-46); host or cells: HeLa
T3 sequence (P52888 whole entry): as above

[5] = target: T4, recombinant rat TOP (rRTOP) (Rattus norvegicus, UniProt P24155); test: Rates of hydrolysis by recombinant rat TOP; type: biochemical; conditions: for Rate of hydrolysis TOP: 10 μg/mL substrate, pH 7.2 10 mM HEPES, 100 μM MnCl2, 37° C., Suc-βAla-Leu-Ala-Leu-Dox = 1.0
T4 construct: made in house; host or cells: E. coli
T4 sequence (P24155 whole entry): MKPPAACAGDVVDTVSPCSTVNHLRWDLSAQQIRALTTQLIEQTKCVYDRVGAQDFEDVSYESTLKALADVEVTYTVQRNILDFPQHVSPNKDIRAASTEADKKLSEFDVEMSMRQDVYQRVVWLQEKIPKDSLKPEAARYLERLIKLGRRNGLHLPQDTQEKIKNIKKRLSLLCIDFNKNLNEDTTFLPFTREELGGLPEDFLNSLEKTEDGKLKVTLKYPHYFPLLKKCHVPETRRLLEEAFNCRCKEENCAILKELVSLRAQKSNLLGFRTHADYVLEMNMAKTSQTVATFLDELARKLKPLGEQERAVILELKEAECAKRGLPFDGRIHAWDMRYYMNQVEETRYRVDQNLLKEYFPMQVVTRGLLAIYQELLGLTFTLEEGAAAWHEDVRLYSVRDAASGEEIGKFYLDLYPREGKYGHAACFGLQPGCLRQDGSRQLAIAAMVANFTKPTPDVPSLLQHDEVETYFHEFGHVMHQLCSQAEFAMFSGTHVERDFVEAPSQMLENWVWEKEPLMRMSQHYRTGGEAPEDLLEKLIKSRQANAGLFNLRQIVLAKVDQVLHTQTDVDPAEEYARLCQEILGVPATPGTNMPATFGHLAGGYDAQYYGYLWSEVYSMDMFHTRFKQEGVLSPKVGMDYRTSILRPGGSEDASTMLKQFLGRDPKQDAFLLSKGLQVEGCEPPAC

HeLa cell trouase (F1) = target: T5, HeLa cell trouase (F1) (Homo sapiens, UniProt P52888); test: Rates of hydrolysis by partially purified HeLa cell trouase (F1); type: biochemical; conditions: 10 μg/mL substrate, pH 7.2 10 mM HEPES, 100 μM MnCl2, 37° C.; Suc-βAla-Leu-Ala-Leu-Dox = 1.0
T5 construct: The fractions containing the highest activity levels were pooled (fractions #43-46); host or cells: HeLa
T5 sequence (P52888 whole entry): as the sequence (P52888 whole entry) above

Porcine Kidney CD10 = test: Hydrolysis by purified CD10; type: biochemical; conditions: 12.5 μg/mL, 37° C., pH 7.4, 10 hr
[6] = target: T6, HeLa cell Fraction 1 trouase (Homo sapiens, UniProt P52888); test: Inhibition of Suc-βAla-Leu-Ala-Leu-Dox hydrolysis by HeLa cell Fraction 1; type: biochemical; conditions: 3 μM
T6 construct: The fractions containing the highest activity levels were pooled (fractions #43-46); host or cells: HeLa
T6 sequence (P52888 whole entry): as above

Compound: O[C@H](CS)[C@H](O)CS (racemic) [DTT, dithiothreitol]
- activation of Suc-βAla-Leu-Ala-Leu-Dox hydrolysis [1]: tenfold activation

Compound: c1cnc2c(c1)ccc1cccnc12 [1,10 phenanthroline]
- trouase activity inhibition ([2]; 2 mM 1,10 phenanthroline): 9 fold

Compound: CCCNC(=O)[C@H]1O[C@@H]1C(=O)N[C@H](C(=O)N1CCC[C@H]1C(=O)O)[C@@H](C)CC [CA-074]
- trouase activity inhibition ([2]; 1 μM): not inhibited

Compound: CC(C)C[C@H](NC(=O)[C@H]1O[C@@H]1C(=O)O)C(=O)NCCCCN=C(N)N [E-64]
- trouase activity inhibition ([2]; 20 μM E-64): not inhibited

Compound: O=C(O)CN(CCN(CC(=O)O)CC(=O)O)CC(=O)O [EDTA]
- trouase activity inhibition ([2]; 1 mM EDTA): 9 fold

Compound: COc1cccc2c1C(=O)c1c(O)c3c(c(O)c1C2=O)C[C@@](O)(C(=O)CO)C[C@@H]3O[C@H]1C[C@H](NC(=O)[C@H](CC(C)C)NC(=O)[C@H](C)NC(=O)[C@H](CC(C)C)NC(=O)CCNC(=O)CCCC(=O)O)[C@H](O)[C@H](C)O1 [Gl-βAla-Leu-Ala-Leu-Dox]
- survival up to 8 days [3]: all animals survived

Compound: COc1cccc2c1C(=O)c1c(O)c3c(c(O)c1C2=O)C[C@@](O)(C(=O)CO)C[C@@H]3O[C@H]1C[C@H](NC(=O)[C@@H](N)CC(C)C)[C@H](O)[C@H](C)O1 [Leucyl-Doxorubicin]
- IC50 (HL-60 cells): 0.222 µM

Compound: COc1cccc2c1C(=O)c1c(O)c3c(c(O)c1C2=O)CC(O)(C(C)=O)CC3OC1CC(NC(=O)C(CC(C)C)NC(=O)C(C)NC(=O)C(CC(C)C)NC(=O)C(C)NC(=O)CCC(=O)O)C(O)C(C)O1 (stereo not drawn) [Suc-Ala-Leu-Ala-Leu-Dnr]
- extent (rate) of cleavage versus the P2 β-alanine compound (MCF 7/6 cell homogenate): 1.3 fold
- extent of cleavage versus the P2 β-alanine compound [4]: 0.6 fold

Compound: CC[C@H](C)[C@H](NC(=O)CCC(=O)O)C(=O)N[C@@H](C)C(=O)N[C@@H](CC(C)C)C(=O)N[C@H]1C[C@H](O[C@H]2C[C@](O)(C(=O)CO)Cc3c(O)c4c(c(O)c32)C(=O)c2c(OC)cccc2C4=O)O[C@@H](C)[C@H]1O [Suc-Ile-Ala-Leu-Dox]
- Rate of hydrolysis TOP [5]: 0
- Rate of hydrolysis (F1) (HeLa cell trouase (F1)): 0

Compound: CCC(C)C(NC(=O)CCC(=O)O)C(=O)N(C)C(C)C(=O)NC(CC(C)C)C(=O)NC1CC(OC2CC(O)(C(=O)CO)Cc3c(O)c4c(c(O)c32)C(=O)c2c(OC)cccc2C4=O)OC(C)C1O (stereo not drawn) [Suc-Ile-NmAla-Leu-Dox]
- Rate of hydrolysis TOP [5]: 0
- Rate of hydrolysis (F1) (HeLa cell trouase (F1)): 0

Compound: COc1cccc2c1C(=O)c1c(O)c3c(c(O)c1C2=O)C[C@@](O)(C(=O)CO)C[C@@H]3O[C@H]1C[C@H](NC(=O)CNC(=O)[C@H](C)NC(=O)[C@H](CC(C)C)NC(=O)CCC(=O)O)[C@H](O)[C@H](C)O1 [Suc-Leu-Ala-Gly-Dox]
- Rate of hydrolysis TOP [5]: 0.43
- Rate of hydrolysis (F1) (HeLa cell trouase (F1)): 0.4

Compound: COc1cccc2c1C(=O)c1c(O)c3c(c(O)c1C2=O)C[C@@](O)(C(=O)CO)C[C@@H]3O[C@H]1C[C@H](NC(=O)[C@H](CC(C)C)NC(=O)[C@H](C)NC(=O)[C@H](CC(C)C)NC(=O)CCC(=O)O)[C@H](O)[C@H](C)O1 [Suc-Leu-Ala-Leu-Dox]
- Rate of hydrolysis TOP [5]: 0.67
- Rate of hydrolysis (F1) (HeLa cell trouase (F1)): 0.78

Compound: COc1cccc2c1C(=O)c1c(O)c3c(c(O)c1C2=O)CC(O)(C(=O)CO)CC3OC1CC(NC(=O)C(CC(C)C)NC(=O)C(C)N(C)C(=O)C(CC(C)C)NC(=O)CCC(=O)O)C(O)C(C)O1 (stereo not drawn) [Suc-Leu-NmAla-Leu-Dox]
- Rate of hydrolysis TOP [5]: 0
- Rate of hydrolysis (F1) (HeLa cell trouase (F1)): 0

Compound: COc1cccc2c1C(=O)c1c(O)c3c(c(O)c1C2=O)C[C@@](O)(C(=O)CO)C[C@@H]3O[C@H]1C[C@H](NC(=O)[C@H](CC(C)C)NC(=O)[C@H](C)NC(=O)[C@H](CCSC)NC(=O)CCC(=O)O)[C@H](O)[C@H](C)O1 [Suc-Met-Ala-Leu-Dox]
- Rate of hydrolysis TOP [5]: 0.99
- Rate of hydrolysis (F1) (HeLa cell trouase (F1)): 0.49

Compound: CC[C@H](C)[C@H](NC(=O)CCNC(=O)CCC(=O)O)C(=O)N[C@@H](C)C(=O)N[C@@H](CC(C)C)C(=O)N[C@H]1C[C@H](O[C@H]2C[C@](O)(C(=O)CO)Cc3c(O)c4c(c(O)c32)C(=O)c2c(OC)cccc2C4=O)O[C@@H](C)[C@H]1O [Suc-βAla-Ile-Ala-Leu-Dox]
- Rate of hydrolysis TOP [5]: <0.03
- Rate of hydrolysis (F1) (HeLa cell trouase (F1)): 0.025

Compound: COc1cccc2c1C(=O)c1c(O)c3c(c(O)c1C2=O)CC(O)(C(=O)CO)CC3OC1CC(NC(=O)C(C)NC(=O)C(C)NC(=O)C(CC(C)C)NC(=O)CCNC(=O)CCC(=O)O)C(O)C(C)O1 (stereo not drawn) [Suc-βAla-Leu-Ala-Ala-Dox]
- cleavage by TOP (presumed) [5]: well cleaved

Compound: COc1cccc2c1C(=O)c1c(O)c3c(c(O)c1C2=O)CC(O)(C(=O)CO)CC3OC1CC(NC(=O)CNC(=O)C(C)NC(=O)C(CC(C)C)NC(=O)CCNC(=O)CCC(=O)O)C(O)C(C)O1 (stereo not drawn) [Suc-βAla-Leu-Ala-Gly-Dox]
- cleavage by TOP [5]: well cleaved

Compound: COc1cccc2c1C(=O)c1c(O)c3c(c(O)c1C2=O)CC(O)(C(=O)CO)CC3OC1CC(NC(=O)C(CC(C)C)NC(=O)C(Cc2ccc(O)cc2)NC(=O)C(CC(C)C)NC(=O)CCNC(=O)CCC(=O)O)C(O)C(C)O1 (stereo not drawn) [Suc-βAla-Leu-Tyr-Leu-Dox]
- % hydrolysis/10 hr (Porcine Kidney CD10): 0%
- Fraction hydrolyzed relative to standard (Porcine Kidney CD10): 0

Compound: CO[C@@H]1[C@H](OC(=O)/C=C/C=C/C=C/C=C/C(=O)O)CC[C@]2(CO2)[C@H]1[C@@]1(C)O[C@@H]1CC=C(C)C [fumagillin]
- carcinoma cell trouase inhibition ([2]; concentration not given): not

Compound: CC(=O)N[C@@H](CC(C)C)C(=O)N[C@@H](CC(C)C)C(=O)N[C@H](C=O)CCCNC(=N)N [leupeptin]
- trouase activity inhibition ([2]; 20 μM leupeptin): not inhibited

Compound: CC(C)CC(=O)N[C@H](C(=O)N[C@H](C(=O)N[C@@H](CC(C)C)[C@@H](O)CC(=O)N[C@@H](C)C(=O)N[C@@H](CC(C)C)[C@@H](O)CC(=O)O)C(C)C)C(C)C [pepstatin] (Isovaleryl-VV[Sta]A[Sta]-OH)
- trouase activity inhibition ([2]; 1.5 μM): not inhibited

Compound: Mcc-Pro-Leu-Gly-Pro-D-Lys(DNP) (Mcc-PLGP-{dK(DNP)}) [quenched fluorescent substrate; Mcc = 7-Methoxycoumarin-3-carboxyl, DNP dinitrophenyl, reference compound]
- Rate of hydrolysis TOP [5]: 1.1
- Rate of hydrolysis (F1) (HeLa cell trouase (F1)): 1.5

Compound: N-[1-(RS)-carboxypropyl-Ala-Ala-Phe-p-aminobenzoate [Cpp-AAF-pAB]
- inhibition of Suc-βAla-Leu-Ala-Leu-Dox hydrolysis [6]: completely inhibited

Compound: aminoethylbenzenesulfonylfluoride
- trouase activity inhibition ([2]; 50 μM): not inhibited

Compound: aprotinin
- trouase activity inhibition ([2]; 4 μg/mL): not inhibited
